The values that follow come from patent US4539402A, “Quinazolinone derivatives” (Troponwerke GmbH & Co., priority 1982, dated 1985).

Read-outs that look alike come from different tables or passages of the source.

Holding throughout (assay type): in vivo
One assay deals with carrageenan oedema. The assay can be described thus: antiphlogistic action, carrageenan oedema (modified method of Winter et al.). Particulars: po; peroral; pure λ-carrageenan as 0.25% suspension in physiological saline. How it is done: Exp. Biol. Med. 111, 544 (1962), with the modification that pure λ-carrageenan as a 0.25% strength suspension in physiological saline solution was used for oedema provocation. The following ED50 values, for example, were determined using this procedure: […]
On the technique in general: Carrageenan injected into the paw causes an acute inflammation.

The next assay concerns orientation motility. The assay is described as follows: influence on orientation motility in mice (sedative action). Particulars: Mus musculus, po, read-out: ED50 (influence on orientation motility, sedative action). How it is done: Influence on orientation motility in mice was tested to determine the sedative action; an ED50 of 0.5 mg/kg perorally was found for the compound of Example 4.

Assay [1] is described as follows: Randall-Selitto test (analgesic action). Particulars: Rattus norvegicus, po; perorally, rats.
Assay [2] in a line: benzoquinone test (analgesic action). Particulars: Mus musculus, po; perorally; mice.

For orientation: ED50 means the dose that gives a 50% effect, or the effect in half of the subjects. `Nc1cccc(N2C3=NCCN3C(=O)c3ccccc32)c1` [Example 9, 10-(3-Aminophenyl)-2,3-dihydroimidazo-[2,1-b]-quinoazolin-5(10H)-one] displayed an ED50 in the assay on carrageenan oedema of 3.1 mg/kg.
Take `CN1C(=O)CN=C(c2ccccc2)c2cc(Cl)ccc21` [diazepam]: the ED50 with orientation motility came out at 2.8 mg/kg.
`O=C1c2ccccc2N(c2cccc([N+](=O)[O-])c2)C2=NCCN12` [Example 4, 10-(3-Nitrophenyl)-2,3-dihydroimidazo-[2,1-b]-quinazolin-5(10H)-one]: the ED50 in the assay with orientation motility (perorally, mice) was 0.5 mg/kg; in assay [1] it was 3.4 mg/kg; in the assay on carrageenan oedema it was 1.3 mg/kg; in assay [2], 3.1 mg/kg.
Turning to `CN(C)CCCN1c2ccccc2Sc2ccc(Cl)cc21` [chlorpromazine], the ED50 in the assay on orientation motility is 3.05 mg/kg.
Regarding `O=C1c2ccccc2N(c2cccc(C(F)(F)F)c2)C2=NCCN12` [Example 5, 10-(3-Trifluoromethylphenyl)-2,3-dihydroimidazo-[2,1-b]-quinazolin-5(10H)-one], it took a dose of 25.2 mg/kg to reach the 50% effect level with carrageenan oedema (ED50).
